Laboratory results taken from ChEMBL document CHEMBL3271946, “Synthesis and adrenoreceptor blocking action of aziridinium ions derived from phenoxybenzamine and dibenamine” (J Med Chem, 1976).
Calls of active or inactive are those of the source. The calls are words filed in the database; no cut-off is given here.

Columns and labels:
Vas deferens = experiment: Blockade of serotonin-induced response in rat vas deferens after 3 mins; type: functional, tissue-based
[1] = target: T1, Adrenergic receptor alpha (Rattus norvegicus) (UniProt P15823+P23944+P43140+P22086+P19328+P22909); experiment: Antagonist activity at alpha-adrenergic receptor in blockade of norepinephrine-induced response in rat vas deferens after 3 mins; type: tissue-based
[2] = target: T1, Adrenergic receptor alpha (Rattus norvegicus); experiment: Antagonist activity at alpha-adrenergic receptor in blockade of norepinephrine-induced response in rat vas deferens after 3 mins measured after compound washout; type: tissue-based
[3] = Half life in krebs solution assessed as hydrolysis at 0.003 M at 37 degC; type: physicochemical
[4] = Half life in 80% aqueous Me2CO solution assessed as compound cyclization at 5x10'-4 M; type: physicochemical; details: 80% aqueous acetone (Me2CO) solution
[5] = Half life in 0.025 M NaHCo3 solution assessed as compound cyclization at 5x10'-4 M; type: physicochemical

| SMILES | inhibition (Vas deferens) | inhibition [1] | inhibition [2] | half-life at 0.003 M [3] [min] | half-life at 500 µM [4] [min] | half-life at 500 µM [5] [min] |
| --- | --- | --- | --- | --- | --- | --- |
| [O-][Cl+3]([O-])([O-])[O-].c1ccc(C[N+]2(Cc3ccccc3)CC2)cc1 | Active | Active | Active | 14 | – | – |
| Cl.ClCCN(Cc1ccccc1)Cc1ccccc1 | Active | Active | Active | – | 1.6 | 6.1 |
| CC(COc1ccccc1)N(CCCl)Cc1ccccc1.Cl (stereo not drawn) [PHENOXYBENZAMINE HYDROCHLORIDE] | Active | Active | Active | – | 0.61 | 2.3 |
| CC(COc1ccccc1)[N+]1(Cc2ccccc2)CC1.[O-][Cl+3]([O-])([O-])[O-] (stereo not drawn) | Active | Active | Active | 19 | – | – |
